Measurements from publication PMC5268410, “Mode of Action of the Natural Insecticide, Decaleside Involves Sodium Pump Inhibition” (PLoS ONE, 2017).

Legend:
[1] = biological target: T1, purified Na^+, K^+ -ATPase (porcine cerebral cortex); experiment: phosphate release from ATP; type: biochemical, Sus scrofa; details: 1.5 mM ATP; Na+ 0.14 M, K+ 14 mM, Mg2+ 3 mM; 37°C
T1 construct: gene ATP1A1; commercial native enzyme purified from porcine cerebral cortex (Sigma); with Sodium/potassium-transporting ATPase subunit beta-1; Sodium/potassium-transporting ATPase subunit beta-2

[2] = biological target: T1, purified Na^+, K^+ -ATPase (porcine cerebral cortex); experiment: phosphate release from ATP, ouabain-inhibitable activity; type: biochemical, Sus scrofa; details: 1.5 mM ATP; Na+ 0.14 M, K+ 14 mM, Mg2+ 3 mM; 37°C; 30 min preincubation; competitive with ATP

IC50 [2] [µM] | Compound | IC50 [1] [µM]
– | C[C@@H]1O[C@@H](O[C@H]2C[C@@H](O)[C@]3(CO)[C@H]4[C@H](O)C[C@]5(C)[C@@H](C6=CC(=O)OC6)CC[C@]5(O)[C@@H]4CC[C@]3(O)C2)[C@H](O)[C@H](O)[C@H]1O [Ouabain] | 254
105 | decaleside I | –
95 | decaleside II | –
